We go through 1 compound from US20230157970A1, “Targeted Therapy of Kidney Fibrosis” (Board of Regents, The University of Texas System, priority 2021, published 2023).

For assay [1], the system named is apoptosis in kidney section. The assay is described as follows: TUNEL assay of kidney section. Format: in vivo, mice. As for the experimental part:
This example was an animal study that created a CKD model by injecting 250 mg/kg folic acid intraperitonially (single injection). After 15 days the treatment started. The mice were divided in 5 groups of untreated, healthy, Fausidil, PLGA-Navitoclax, and PLGA-AT2-Navitoclax. FIGS. 9A-9R: Immunohistochemistry (IHC) and TUNEL assay of kidney section. IHC for alpha-SMA protein of different treatment group (A-F). The arrow pointed to the dark dot which represented the alpha-SMA protein. […] The dark dot from FIGS. 9G-9L represented the CTGF protein.

A further assay concerns CKD model. The assay is described as follows: Folic acid CKD model, kidney size after harvesting. The format is in vivo. The conditions noted are these: folic acid CKD mice; 10 mg/kg, Navi oral, nanoparticles IV. As for the experimental part: This example was an animal study that created a CKD model by injecting 250 mg/kg folic acid intraperitonially (single injection). After 15 days the treatment started. The mice were divided in 5 groups of untreated, healthy, Fausidil, PLGA-Navitoclax, and PLGA-AT2-Navitoclax. FIG. 5: Figure: Image of the kidney after harvesting. The kidney from different treatment groups: A-Healthy control 510, B-Untreated control 520, C-Navi(10 mg/kg oral) 530, D-Fausidil(10 mg/kg IP) 540, E-PLGA-Navi(10 mg/kg IV) 550, F-PLGA-AT2-Navi(10 mg/kg IV) 560. FIGS. 6A-6B: The size of the untreated kidney shrunk by 42.46% (p-value 0.0062) than the healthy control (A). […] The weight of kidney (B) was also measured in gm and the weight 620 of the kidney treated with PLGA-AT2-Navi.

For the next assay, the system named is Bcl2. The assay is described as follows: Western blot analysis from the kidney sample, Bcl2. Format: in vivo, mice. The conditions noted are these: 10 mg/kg, compared with other groups. How it is done: This example was an animal study that created a CKD model by injecting 250 mg/kg folic acid intraperitonially (single injection). After 15 days the treatment started. The mice were divided in 5 groups of untreated, healthy, Fausidil, PLGA-Navitoclax, and PLGA-AT2-Navitoclax.
FIG. 8: Western blot analysis from the kidney sample. Bcl2 expression was decreased in the sample collected from different group Healthy control, Untreated control, Navi(10 mg/kg oral), Fausidil(10 mg/kg IP), PLGA-Navi(10 mg/kg IV), PLGA-AT2-Navi(10 mg/kg IV) of mice.
On the technique in general: Immunoblotting shows a protein as a band on a membrane.

Regarding `CC1(C)CCC(c2ccc(Cl)cc2)=C(CN2CCN(c3ccc(C(=O)NS(=O)(=O)c4ccc(N[C@H](CCN5CCOCC5)CSc5ccccc5)c(S(=O)(=O)C(F)(F)F)c4)cc3)CC2)C1` [Navitoclax], the “apoptosis (broken nucleus of DNA) by TUNEL” value in assay [1] was “apoptosis was observed”. In addition, the “increase of kidney size after treatment” value with CKD model worked out at 43.95%. In the assay with Bcl2, the Bcl2 expression entry was “less expression of bcl2”.
